For this experiment, the target named is T1, human recombinant his-tagged HSP90α (Homo sapiens, UniProt P07900).
T1 construct: purchased Prospec Technogene #HSP90
Description: HSP90 enzyme assay (HTRF, competition with biotinylated Geldanamycin). The class given is binding. The note with it: for IC50: IC50 range, read-out: Enzyme Assay. From the text: An HTRF (homogeneous time resolved fluorescence) assay is used to measure the interaction of the compounds with HSP90. The assay measures binding of biotinylated Geldanamycin (bio-GM; Biomol, #EI-341, lot: A9199a) to human recombinant his-tagged HSP90α (HSP90; Prospec Technogene, #HSP90, lot: 260HSP9001). A signal is generated by fluorescence resonance energy transfer from an Europium-cryptate labeled anti-his antibody (anti-his-K; Cisbio International, #61HISKLA, lot: 33V) via the HSP90-GM-biotin complex to a fluorescence acceptor (allophycocyanin) linked to streptavidin (SA-XL; Cisbio International, #610SAXLB, lot: 089).
Unlabeled GM or compounds compete with the bio-GM for binding to HSP90 resulting in reduced fluorescence energy transfer/assay signal.
A preformed (1 hour incubation) complex of HSP90 with the anti-his-K is added to the compound solution in a 384 well microplate (Corning, #3710) and incubated for 15 minutes. A preformed (1 hour incubation) complex of bio-GM with the SA-XL is added to the wells and incubated for 20 hours. All incubations are performed at room temperature. The final assay volume is 50 μl/well. The final concentrations in the assay are: 50 mM Hepes pH 7.3, 50 mM NaCl, 100 mM KF, 1 mM EDTA, 1 mM DTT, 0.1% Triton-X-100, […] HSP90, 40 nM SA-XL, 40 nM bio-GM. Test compounds are dissolved in DMSO, prediluted in assay buffer and tested at a final concentration between 5000 nM and 0.3 nM. The resulting DMSO concentration is 0.5% and included in all controls. High controls are without test compounds, low controls without test compounds, without HSP90 and without bio-GM. As a reference inhibitor unlabeled GM is used in the same concentrations as the test compounds.
Inhibition is calculated compared to the assay controls using an Excel spreadsheet (Microsoft). IC50 values are calculated by non-linear least squares fitting to the standard dose-response model using GraphPad Prism (GraphPad Software Inc).

Some results are limits rather than exact numbers.

Consider `CC(C)C[C@H](NC1CCN(C(=O)c2cc(C(C)C)c(O)cc2O)CC1)C(=O)O` [Example 96, N-(1-{[2,4-dihydroxy-5-(propan-2-yl)phenyl]carbonyl}piperidin-4-yl)-L-leucine], for which the IC50 was less than 100 nM.

With `CC(C)c1cc(C(=O)N2CCC(NC(C)(C)C(=O)O)CC2)c(O)cc1O` [Example 97, N-(1-{[2,4-dihydroxy-5-(propan-2-yl)phenyl]carbonyl}piperidin-4-yl)-2-methylalanine], the IC50 was less than 100 nM.

Regarding `CC(C)c1cc(C(=O)N2CCC(N[C@H](C(=O)O)C(C)C)CC2)c(O)cc1O` [Example 98, N-(1-{[2,4-dihydroxy-5-(propan-2-yl)phenyl]carbonyl}piperidin-4-yl)-L-valine], the IC50 is less than 100 nM.

Consider `CC(C)c1cc(C(=O)N2CCC(N[C@H](C(=O)O)c3ccccc3)CC2)c(O)cc1O` [Example 99, (2S)-[(1-{[2,4-dihydroxy-5-(propan-2-yl)phenyl]carbonyl}piperidin-4-yl)amino](phenyl)ethanoic acid], for which the IC50 was less than 100 nM.

For the molecule `CC(C)c1cc(C(=O)N2CCC(N[C@@H](C)C(=O)O)CC2)c(O)cc1O` [Example 100, N-(1-{[2,4-dihydroxy-5-(propan-2-yl)phenyl]carbonyl}piperidin-4-yl)-L-alanine], the IC50 was less than 100 nM.

On to `CC(C)c1cc(C(=O)N2CCC(N[C@@H](Cc3ccccc3)C(=O)O)CC2)c(O)cc1O` [Example 101, N-(1-{[2,4-dihydroxy-5-(propan-2-yl)phenyl]carbonyl}piperidin-4-yl)-L-phenylalanine], for which the IC50 is less than 100 nM.

Turning to `CC(C)C[C@H](NC1CCCN(C(=O)c2cc(C(C)C)c(O)cc2O)C1)C(=O)O` (stereo partly drawn) [Example 102, N-(1-{[2,4-dihydroxy-5-(propan-2-yl)phenyl]carbonyl}piperidin-3-yl)-L-leucine], the IC50 lay in the range of 100 to 1000 nM.

With `CC(C)C[C@H](NCC1CCN(C(=O)c2cc(C(C)C)c(O)cc2O)CC1)C(=O)O` [Example 103, N-[(1-{[2,4-dihydroxy-5-(propan-2-yl)phenyl]carbonyl}piperidin-4-yl)methyl]-L-leucine], the IC50 was less than 100 nM.

Take `CC(C)C[C@H](NCCC1CCN(C(=O)c2cc(C(C)C)c(O)cc2O)CC1)C(=O)O` [Example 104, N-[2-(1-{[2,4-dihydroxy-5-(propan-2-yl)phenyl]carbonyl}piperidin-4-yl)ethyl]-L-leucine]: the IC50 is less than 100 nM.

As for `CCCC[C@H](NC1CCN(C(=O)c2cc(C(C)C)c(O)cc2O)CC1)C(=O)O` [Example 105, N-(1-{[2,4-dihydroxy-5-(propan-2-yl)phenyl]carbonyl}piperidin-4-yl)-L-norleucine], the IC50 is less than 100 nM.

Turning to `CC(C)c1cc(C(=O)N2CCC(CN[C@@H](C)C(=O)O)CC2)c(O)cc1O` [Example 106, N-[(1-{[2,4-dihydroxy-5-(propan-2-yl)phenyl]carbonyl}piperidin-4-yl)methyl]-L-alanine], the IC50 is less than 100 nM.

Regarding `CC(C)c1cc(C(=O)N2CCC(CN[C@@H](Cc3ccccc3)C(=O)O)CC2)c(O)cc1O` [Example 107, N-[(1-{[2,4-dihydroxy-5-(propan-2-yl)phenyl]carbonyl}piperidin-4-yl)methyl]-L-phenylalanine], the IC50 was less than 100 nM.

Consider `CC(C)C[C@@H](NCC1CCN(C(=O)c2cc(C(C)C)c(O)cc2O)CC1)C(=O)O` [Example 108, N-[(1-{[2,4-dihydroxy-5-(propan-2-yl)phenyl]carbonyl}piperidin-4-yl)methyl]-D-leucine], for which the IC50 was less than 100 nM.

As to `CC(C)C[C@@H](NC1CCN(C(=O)c2cc(C(C)C)c(O)cc2O)CC1)C(=O)O` [Example 109, N-(1-{[2,4-dihydroxy-5-(propan-2-yl)phenyl]carbonyl}piperidin-4-yl)-D-leucine], the IC50 is greater than 1000 nM.

`CC(C)c1cc(C(=O)N2CCC(N[C@@H](CC3CCCCC3)C(=O)O)CC2)c(O)cc1O` [Example 110, 3-cyclohexyl-N-(1-{[2,4-dihydroxy-5-(propan-2-yl)phenyl]carbonyl}piperidin-4-yl)-L-alanine]: the IC50 was less than 100 nM.

On to `CC(C)c1cc(C(=O)N2CCC(CCN[C@@H](Cc3ccccc3)C(=O)O)CC2)c(O)cc1O` [Example 111, N-[2-(1-{[2,4-dihydroxy-5-(propan-2-yl)phenyl]carbonyl}piperidin-4-yl)ethyl]-L-phenylalanine], for which the IC50 was less than 100 nM.

With `CC(C)c1cc(C(=O)N2CCC(CN[C@H](C(=O)O)C(C)C)CC2)c(O)cc1O` [Example 112, N-[(1-{[2,4-dihydroxy-5-(propan-2-yl)phenyl]carbonyl}piperidin-4-yl)methyl]-L-valine], the IC50 was less than 100 nM.

`CC(C)c1cc(C(=O)N2CCC(N[C@H](C(=O)O)C3CCCCC3)CC2)c(O)cc1O` [Example 113]: the IC50 was less than 100 nM.

Turning to `CC(C)c1cc(C(=O)N2CCC(CCN[C@@H](COC(C)(C)C)C(=O)O)CC2)c(O)cc1O` [Example 115, O-tert-butyl-N-[2-(1-{[2,4-dihydroxy-5-(propan-2-yl)phenyl]carbonyl}piperidin-4-yl)ethyl]-L-serine], the IC50 is less than 100 nM.

Consider `CC(C)c1cc(C(=O)N2CCC(CN[C@H](C(=O)O)C3CCCCC3)CC2)c(O)cc1O` [Example 116, (2S)-cyclohexyl{[(1-{[2,4-dihydroxy-5-(propan-2-yl)phenyl]carbonyl}piperidin-4-yl)methyl]amino}ethanoic acid], for which the IC50 was less than 100 nM.

Regarding `CC(C)c1cc(C(=O)N2CCC(CNC(C)(C)C(=O)O)CC2)c(O)cc1O` [Example 117, N-[(1-{[2,4-dihydroxy-5-(propan-2-yl)phenyl]carbonyl}piperidin-4-yl)methyl]-2-methylalanine], the IC50 is less than 100 nM.

In the case of `CC(C)c1cc(C(=O)N2CCC(CN[C@@H](CO)C(=O)O)CC2)c(O)cc1O` [Example 118, N-[(1-{[2,4-dihydroxy-5-(propan-2-yl)phenyl]carbonyl}piperidin-4-yl)methyl]-L-serine], the IC50 is less than 100 nM.

`CC(C)c1cc(C(=O)N2CCC(CN[C@@H](COC(C)(C)C)C(=O)O)CC2)c(O)cc1O` [Example 119]: the IC50 was less than 100 nM.

As for `CC(C)c1cc(C(=O)N2CCC(CN[C@H](C(=O)O)c3ccccc3)CC2)c(O)cc1O` [Example 120, (2S)-{[(1-{[2,4-dihydroxy-5-(propan-2-yl)phenyl]carbonyl}piperidin-4-yl)methyl]amino}(phenyl)ethanoic acid], the IC50 is less than 100 nM.

Turning to `CC(C)c1cc(C(=O)N2CCC(CCN[C@H](C(=O)O)C(C)C)CC2)c(O)cc1O` [Example 121, N-[2-(1-{[2,4-dihydroxy-5-(propan-2-yl)phenyl]carbonyl}piperidin-4-yl)ethyl]-L-valine], the IC50 is less than 100 nM.

On to `CC(C)c1cc(C(=O)N2CCC(N[C@@H](COC(C)(C)C)C(=O)O)CC2)c(O)cc1O` [Example 122, O-tert-butyl-N-(1-{[2,4-dihydroxy-5-(propan-2-yl)phenyl]carbonyl}piperidin-4-yl)-L-serine], for which the IC50 was less than 100 nM. The “IC50 in the Hsp90 binding assay compared with CHR-7310” value (in words, relative to non-ester parent CHR-7310) is “similar”.

Regarding `CC(C)c1cc(C(=O)N2CCC(CCN[C@H](C(=O)O)C3CCCCC3)CC2)c(O)cc1O` [Example 123, (2S)-cyclohexyl{[2-(1-{[2,4-dihydroxy-5-(propan-2-yl)phenyl]carbonyl}piperidin-4-yl)ethyl]amino}ethanoic acid], the IC50 is less than 100 nM.

Regarding `CC(C)c1cc(C(=O)N2CCC(CCN[C@H](C(=O)O)c3ccccc3)CC2)c(O)cc1O` [Example 124, (2S)-{[2-(1-{[2,4-dihydroxy-5-(propan-2-yl)phenyl]carbonyl}piperidin-4-yl)ethyl]amino}(phenyl)ethanoic acid], the IC50 was less than 100 nM.

`CC(C)c1cc(C(=O)N2CCC(N[C@@H](CO)C(=O)O)CC2)c(O)cc1O` [Example 125, N-(1-{[2,4-dihydroxy-5-(propan-2-yl)phenyl]carbonyl}piperidin-4-yl)-L-serine]: the IC50 was less than 100 nM.

Regarding “N-[2-(1-{[2,4-dihydroxy-5-(propan-2-yl)phenyl]carbonyl}piperidin-4-yl)ethyl]-2-methylalanine [Example 114]”, the IC50 is less than 100 nM.

Consider “N-{3-[(1-{[2,4-dihydroxy-5-(propan-2-yl)phenyl]carbonyl}piperidin-4-yl)amino]propyl}-L-leucine [Example 127]”, for which the IC50 is less than 100 nM.

Take “tert-butyl N-[2-(1-{[2,4-dihydroxy-5-(propan-2-yl)phenyl]carbonyl}piperidin-4-yl)ethyl]-L-serinate [Example 52]”: the IC50 is less than 100 nM.

These data come from patent US9321718B2 (CHROMA THERAPEUTICS LTD., priority 2010, dated 2016).
